Source: patent US12171813B2, “Methods of and compositions for reducing gene expression and/or activity” (Christiana Care Gene Editing Institute, Inc., priority 2021, dated 2024)

Test system: EGFR
Assay: cDNA PCR analysis of exon skipping / full-size transcript in EGFR
Format: cell-based, Human
Details: gRNA on its own; PDMR lung adenocarcinoma cells
Experimental: After CRISPR reactions, total RNA was prepared, and cDNA synthesized for PCR amplification of the target region from EGFR. PCR-amplified DNA was then analyzed by electrophoresis through a 1% agarose gel for 75 minutes at 80v. DNA was stained with SYBR Safe. Lanes 1 and 13: NEB 2 Log Ladder; Lane 2: Scrambled gRNA; Lane 3: EGFR 21-22 SureKill gRNA 11 alone; Lane 4: EGFR 21-22 SureKill gRNA 13 alone; Lane 5: EGFR 21-22 SureKill gRNA 16 alone; Lane 6: EGFR 21-22 SureKill gRNA 17 alone; Lane 7: EGFR 21-22 SureKill gRNA 19 alone; Lane 8: EGFR 21-22 SureKill gRNA 22 alone; Lane 9: EGFR 21-22 SureKill gRNA 23 alone; Lane 10: EGFR 21-22 SureKill gRNA 27 alone; Lane 11: EGFR 21-22 SureKill gRNA 28 alone; Lane 12: EGFR 21-22 SureKill gRNA 29 alone. On the left side of the image are markers indicating DNA size in bp.
After CRISPR reactions, total RNA was prepared, and cDNA synthesized for semi-quantitative PCR amplification of the target region from EGFR. PCR amplification was performed for 25 cycles. PCR-amplified DNA was then analyzed by electrophoresis through a 1% agarose gel for 75 minutes at 80v. DNA was stained with SYBR Safe. […]
Transfections were carried out using the Lonza Nuclefector 4d. […] RNPs were complexed at 250:50 pmol for 30 minutes prior to transfection, during which time cells were harvested and counted. […]

L858R gRNA: guide RNA TCAAGATCACAGATTTTGGG, SEQ ID NO:8, targets EGFR L858R mutation (listed as DNA, chemistry not given here)
exon skipping (cDNA analysis): induced some level of exon skipping
